Results published in ChEMBL document CHEMBL6134819, “Discovery of novel tranylcypromine-indazole-based derivatives as LSD1 inhibitors for acute myeloid leukemia treatment” (Eur J Med Chem, 2025).
Activity calls are given as the source filed them. The calls are words filed in the database; no cut-off is given here.

Key:
[1] = Metabolic stability in mouse liver microsomes assessed as intrinsic clearance measured up to 60 mins in presence of NADPH by LC-MS/MS analysis; assay type: ADME, Microsome; conditions: read-out: CLH
[2] = system: MV4-11; assay: Induction of apoptosis in human MV4-11 cells assessed as increase in late apoptosis measured after 48 hrs by Annexin V-FITC/PI double staining based flow cytometry analysis; assay type: functional, cell-based; conditions: dose 2-4 µmol/L
[3] = Metabolic stability in human liver microsomes assessed as intrinsic clearance measured up to 60 mins in presence of NADPH by LC-MS/MS analysis; assay type: ADME, Microsome; conditions: read-out: CLH
[4] = system: MV4-11; assay: Induction of apoptosis in human MV4-11 cells assessed as viable cells at 2 micromol/L measured after 48 hrs by Annexin V-FITC/PI double staining based flow cytometry analysis (reference value: 89.13%); assay type: functional; conditions: MV4-11, 48 h, dose 2 µmol/L, read-out: Activity
[5] = system: MV4-11; assay: Induction of apoptosis in human MV4-11 cells assessed as viable cells at 3 micromol/L measured after 48 hrs by Annexin V-FITC/PI double staining based flow cytometry analysis (reference value: 89.13%); assay type: functional; conditions: MV4-11, 48 h, dose 3 µmol/L, read-out: Activity
[6] = system: THP-1; assay: Antiproliferative activity against human THP-1 cells assessed as inhibition of cell growth measured after 7 days by cell-titer glo assay; assay type: functional, cell-based; conditions: THP-1, 168 h
[7] = system: MV4-11; assay: Induction of apoptosis in human MV4-11 cells assessed as early apoptotic cells at 2 micromol/L measured after 48 hrs by Annexin V-FITC/PI double staining based flow cytometry analysis (reference value: 2.01 %); assay type: functional; conditions: dose 2 µmol/L, at 2 µM
[8] = target: T1, Lysine-specific histone demethylase 1A (Homo sapiens, UniProt O60341); assay: Inhibition of LSD1 in human MV4-11 cells assessed as increase in H3K4 expression level at 2 to 4 micromol/L measured after 48 hrs by Western blot analysis; assay type: cell-based; conditions: dose 2-4 µmol/L
[9] = system: MV4-11; assay: Induction of apoptosis in human MV4-11 cells assessed as early apoptotic cells at 4 micromol/L measured after 48 hrs by Annexin V-FITC/PI double staining based flow cytometry analysis (reference value: 2.01 %); assay type: functional; conditions: dose 4 µmol/L, at 4 µM
[10] = system: MV4-11; assay: Induction of apoptosis in human MV4-11 cells assessed as necrotic cells at 4 micromol/L measured after 48 hrs by Annexin V-FITC/PI double staining based flow cytometry analysis (reference value: 1.16 %); assay type: functional; conditions: dose 4 µmol/L, at 4 µM
[11] = system: MV4-11; assay: Induction of apoptosis in human MV4-11 cells assessed as increase in cleaved caspase-3 level at 2 to 4 micromol/L measured after 72 hrs by Western blot analysis; assay type: functional, cell-based; conditions: dose 2-4 µmol/L
[12] = system: MV4-11; assay: Induction of apoptosis in human MV4-11 cells measured after 48 hrs by Annexin V-FITC/PI double staining based flow cytometry analysis; assay type: functional, cell-based; conditions: dose 2-4 µmol/L
[13] = system: MV4-11; assay: Induction of apoptosis in human MV4-11 cells assessed as late apoptotic cells at 2 micromol/L measured after 48 hrs by Annexin V-FITC/PI double staining based flow cytometry analysis (reference value: 7.70 %); assay type: functional; conditions: dose 2 µmol/L, at 2 µM
[14] = target: T1, Lysine-specific histone demethylase 1A; assay: Induction of thermal stabilization of LSD1 in human MV4-11 cells at 50 to 75 degree C by […] analysis; assay type: cell-based
[15] = Metabolic stability in rat liver microsomes assessed as intrinsic clearance measured up to 60 mins in presence of NADPH by LC-MS/MS analysis; assay type: ADME, Microsome; conditions: read-out: CLH
[16] = target: T2, Amine oxidase [flavin-containing] A (Homo sapiens, UniProt P21397); assay: Inhibition of human N-terminal Flag-tagged MAOA extracted baculovirus infected in Sf9 cells measured after 0.5 hrs by MAO-Glo Assay
T2 sequence (P21397 whole entry): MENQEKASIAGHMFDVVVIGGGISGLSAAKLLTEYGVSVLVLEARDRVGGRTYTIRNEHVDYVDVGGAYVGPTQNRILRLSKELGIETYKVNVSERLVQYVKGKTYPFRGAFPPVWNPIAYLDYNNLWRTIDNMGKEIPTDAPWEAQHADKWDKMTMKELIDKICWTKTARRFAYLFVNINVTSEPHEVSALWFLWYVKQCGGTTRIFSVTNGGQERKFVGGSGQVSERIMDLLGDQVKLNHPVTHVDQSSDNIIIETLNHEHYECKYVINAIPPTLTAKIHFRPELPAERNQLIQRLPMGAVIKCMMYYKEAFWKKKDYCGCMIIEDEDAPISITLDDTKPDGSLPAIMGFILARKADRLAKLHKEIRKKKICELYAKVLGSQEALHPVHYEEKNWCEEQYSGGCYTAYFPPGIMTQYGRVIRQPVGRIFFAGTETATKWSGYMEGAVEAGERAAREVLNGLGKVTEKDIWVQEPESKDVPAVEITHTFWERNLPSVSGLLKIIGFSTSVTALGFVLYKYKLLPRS

[17] = system: MV4-11; assay: Induction of apoptosis in human MV4-11 cells assessed as necrotic cells at 3 micromol/L measured after 48 hrs by Annexin V-FITC/PI double staining based flow cytometry analysis (reference value: 1.16 %); assay type: functional; conditions: dose 3 µmol/L, at 3 µM
[18] = system: MV4-11; assay: Induction of apoptosis in human MV4-11 cells assessed as increase in early apoptosis measured after 48 hrs by Annexin V-FITC/PI double staining based flow cytometry analysis; assay type: functional, cell-based; conditions: dose 2-4 µmol/L

With `Cl.O=S(=O)(c1ccccc1)n1ncc2cc(-n3cc(CN[C@@H]4C[C@H]4c4ccc(F)c(F)c4)nn3)ccc21` the CLint scaled [1] was 261 mL/min/kg, the Activity [2] was “Dose-dependent-effect” and the CLint scaled [3] was 108 mL/min/kg. The viability at 2 µM [4] was 80.4%, the viability at 3 µM [5] was 80.8% and the IC50 [6] was 1960 nM. For the same molecule, the Activity [7] was 2.52%, the inhibition [8] was “Active” and the Activity [9] was 4.28%. The Activity [10] was 2.91%, the Activity [11] was “Active” and the Activity [12] was “Dose-dependent-effect”. The Activity [13] was 13.76%, the Activity [14] was “Active” and the CLint scaled [15] was 352 mL/min/kg. The IC50 [16] was 840 nM, the Activity [17] was 2.8% and the Activity [18] was “Dose-dependent-effect”.
